In article PMC6651024, “LIR Motif-Containing Hyperdisulfide β-Ginkgotide is Cytoprotective, Adaptogenic, and Scaffold-Ready” (Molecules, 2019):
Entries after “also recorded” stand apart in the source; their conditions may differ. Where a SMILES comes first, the peptide text is derived from it.

Legend:
[1] = tested on: caspase-9; assay: Western blot of caspase-9 in SH-SY5Y cells; assay type: cell-based, human; conditions: triplicates
Protocol: In contrast, the β-gB1-treated cells increased the expression of the LC3B-II isoform by 2.8-fold. […] In addition, the β-gB1-treated cells increased the BECN1 expression by 1.5-fold (Figure 2A,B).
(§1) Rat cardio-myoblast cells (H9c2) and […] neuron-like SH-SY5Y cells were purchased from ATCC and maintained in DMEM (Dulbecco’s modified eagle medium) medium supplemented with 10% fetal bovine serum (FBS), 10,000 U/mL of penicillin, and 10,000 µg/mL of streptomycin at 37 °C, 5% CO2.
A 25 µg equivalent quantity of each protein samples were resolved on a 10% and 15% SDS-PAGE gel accordingly and transferred onto a nitrocellulose membrane. Immunoblotting was performed using anti-protein antibodies against glyceraldehyde 3-phosphate dehydrogenase (GAPDH) (1:5000), LC3B (1:1500), Beclin-1 (1:1500), Caspase-3 (1:1500), and Caspase-9 (1:1500). Blots were developed with Clarity Max Western ECL blotting substrates. Protein bands were quantitated densitometrically using ImageJ software (ImageJ15.0b, Wayen Rasband, NIH, Bethesda, Maryland, USA), expressed relative to GAPDH, and normalized to the vehicle control cells. Statistical calculations and bar graphs were done using GraphPad Prism software (Version 6.01), and three individual experimental data sets were used for the calculation. Data are presented as means ± SD and compared by the Holm–Sidak multiple t-tests method. […]

[2] = tested on: Candida tropicalis; conditions: concentrations up to 100 µM; cited from earlier work
[3] = tested on: SH-SY5Y cells; assay type: cell-based, mouse; conditions: 48 h hypoxia, MTT
Protocol: Autophagy is an integrated stress response that clears the subcellular damages. Previous studies have shown that such damages can be induced by hypoxia and hypoxia-reoxygenation stress. Clearing subcellular damages would increase survivability. In traditional medicine, G. biloba is used as an herbal remedy for acute ischemic stroke and post-stroke recovery. To examine the effects of β-gB1 in hypoxia stress, we used cardio-myoblast H9c2 and SH-SY5Y cells. Cells were cultured with or without β-gB1 and incubated in a hypoxic environment for 48 h before the assessment of cell survival by the MTT assay. […] Importantly, when the concentration of β-gB1 was reduced tenfold from 10 to 1 µM, a 22–24% increase of survivability was still observed in H9c2 and SH-SY5Y cells (Figure 3A–D). […]
Cells were cultured in DMEM with or without β-gB1/S-alkylated β-gB1 (β-gB1Alk) for 48 h under normoxia, hypoxia, and hypoxia-reoxygenation conditions. […] The culture medium was then aspirated, and purple formazan crystals were dissolved in DMSO for colorimetric quantification at 570 nm using a microplate reader with a reference wavelength of 630 nm. […]

[4] = Enzymatic (proteolytic) stability against trypsin; assay type: in vitro ADME; conditions: isolated enzyme trypsin; 800 U/mL trypsin, 0.1 M ammonium bicarbonate buffer pH 7.8, 37 °C, 6 h; 28 µg peptide in 100 µL; MALDI-TOF MS and C18 RP-HPLC; read-out: Peptide remaining intact after trypsin treatment
Protocol: To assess the proteolytic stability of β-gB1, it was treated with trypsin or pepsin for 6 h. […] Similarly, the S-alkylated β-gB1 was degraded completely by pepsin within 30 min. […] This is in agreement with other plant CRPs that contain a compact structure, whose proteolytic stability was examined up to six hours treatment.
The folded β-gB1 (28 µg) was added to 100 μL of a 0.1 M ammonium bicarbonate buffer (pH 7.8) containing 800 U/mL of trypsin or 4 mg/mL of pepsin and incubated at 37 °C for 6 h. At each time-point (0, 1, 2, 4, and 6 h), 20 µL of the treated sample was aliquoted and quenched by adding 5 µL of 1 M hydrochloric acid or 0.8 μL of 1 M sodium hydroxide. The reduced β-gB1 was alkylated with iodoacetamide (S-alkylated β-gB1) and used as a control in this study. The reaction mixture was analyzed by MALDI-TOF MS and C18-reversed-phase HPLC to determine its stability.

[5] = tested on: Vero cell line; conditions: MTT assay; cited from earlier work
Description: (§2) In addition, β-gB1 is non-toxic to Vero and BHK (baby hamster kidney) cell lines based on an MTT assay. […] LDH is a cytoplasmic enzyme which is rapidly released int ...

[6] = tested on: BHK (baby hamster kidney) cell line; conditions: MTT assay; cited from earlier work
Description: as §2

[7] = tested on: H9c2 cells; assay: MTT-based cell proliferation assay under normoxia, H9c2; set-up: species or system rat; conditions: H9c2, 10 µM peptide, 48 h, triplicates
Description: (§3) In addition, β-gB1 is non-toxic to Vero and BHK (baby hamster kidney) cell lines based on an MTT assay. […] LDH is a cytoplasmic enzyme which is rapidly released into the cell culture medium upon plasma membrane damage and is widely used as a marker for cytotoxicity. Thus, an LDH-release assay measures the level of plasma membrane damage to a cell population.
as §1
Cells were cultured in DMEM with or without β-gB1/S-alkylated β-gB1 (β-gB1Alk) for 48 h under normoxia, hypoxia, and hypoxia-reoxygenation conditions. Phosphate-buffered saline (PBS) was used as a vehicle control. After 48 h, MTT (3-(4,5-dimethylthiazol-2-yl)-2,5-diphenyltetrazolium bromide) reagent was added with a final concentration of 0.5 mg/mL, and it was incubated at 37 °C for 2 h. The culture medium was then aspirated, and purple formazan crystals were dissolved in DMSO for colorimetric quantification at 570 nm using a microplate reader with a reference wavelength of 630 nm. […]

[8] = tested on: SH-SY5Y cells; assay: LDH release cytotoxicity assay, SH-SY5Y; assay type: cell-based, mouse; conditions: 10 µM peptide, 48 h, 37 °C, LDH kit, 450 nm, triplicates
Description: as §3, §1
An LDH release assay was performed using the CytoSelect™ LDH cytotoxicity assay kit (CBA-241, Cell Biolabs, Inc., San Diego, CA, USA). In brief, cells were cultured in DMEM with or without 10 µM of β-gB1 and S-alkylated β-gB1 (β-gB1Alk) for 48 h at 37 °C and 5% CO2. PBS was used for the vehicle control experiment. The culture medium was transferred and mixed with the LDH assay reagent in a ratio of 9:1. The reaction mixture was incubated at 37 °C for 2 h, and colorimetric quantification was performed using a 450 nm wavelength. The assay was performed in experimental triplicates, and statistical calculations and bar graphs were done using GraphPad Prism software (Version 6.01). […]

For CC[C@H](C)[C@@H]1NC(=O)[C@@H]2CSSC[C@H](NC(=O)CNC(=O)[C@@H](NC(=O)[C@H](CCC(=O)O)NC(=O)[C@@H](N)Cc3ccc(O)cc3)[C@@H](C)O)C(=O)N[C@@H](CCCCN)C(=O)N[C@@H](CCCNC(=N)N)C(=O)N[C@H]3CSSC[C@@H](C(=O)O)NC(=O)[C@H](CSSC[C@H](NC3=O)C(=O)N[C@@H](Cc3ccc(O)cc3)C(=O)N[C@@H](CC(C)C)C(=O)N[C@@H](CC(=O)O)C(=O)N[C@@H](CCC(=O)O)C(=O)N[C@@H](Cc3ccc(O)cc3)C(=O)NCC(=O)N2)NC(=O)[C@H](CCCNC(=N)N)NC1=O [β-gB1] (HELM PEPTIDE1{Y.E.T.G.C.K.R.C.C.Y.L.D.E.Y.G.C.I.R.C.C}$PEPTIDE1,PEPTIDE1,5:R3-16:R3|PEPTIDE1,PEPTIDE1,8:R3-20:R3|PEPTIDE1,PEPTIDE1,9:R3-19:R3$$$V2.0; N-terminus and C-terminus assumed), the “Expression of caspase-9 in treated cells” value [1] is given as “remained unchanged”, the Antimicrobial effect [2] is given as “does not exhibit an antimicrobial effect” and the “Increase of cell survivability under hypoxia” value ([3]; 1 µM peptide, range printed jointly for H9c2 and SH-SY5Y) is given as 22–24%. The “Cytoprotective effect under hypoxia (in words)” value ([3]; 10 µM peptide, compared with 37% in H9c2) was “comparable cytoprotective effect”, the remaining at 6 h [4] was about 90% and the “Toxicity to cell line” value [5] was “non-toxic”. For the same molecule, the “Toxicity to cell line” value [6] was “non-toxic”, the “Cell viability (growth or death) under normoxia” value [7] was “No change in cell viability; also recorded: no significant effect on the growth or death” and the “Cytotoxicity / cell-membrane damage by LDH release” value [8] was “no significant cytotoxicity or cell-membrane damaging effects”.
